Data reported in US20040142952A1, “Triazoloquinazoline and pyrazolotriazolopyrimidine derivatives, medicinal compositions, adenosine a3 receptor affinity agents, ocular tension lowering agents, preparations for preventing and treating glaucoma and method of lowering ocular tension” (priority 2001, published 2004).

Row | Structure (SMILES) | melting point [°C]
1 | CCCc1nc2ccccc2c2nc(-c3ccccc3)nn12 [Example 21, 2-phenyl-5-propyl-1,2,4-triazolo[1,5-c]quinazoline] | 143 to 144
2 | CCCCc1nc2ccccc2c2nc(-c3ccccc3Cl)nn12 [Example 24, 5-n-butyl-2-(2-chlorophenyl)-1,2,4-triazolo[1,5-c]quinazoline] | 104.5 to 105.55
3 | CCCCc1nc2ccccc2c2nc(-c3cccc(Cl)c3)nn12 [Example 25, 5-n-butyl-2-(3-chlorophenyl)-1,2,4-triazolo[1,5-c]quinazoline] | 129 to 131
4 | CCCCc1nc2ccccc2c2nc(-c3ccc(C(C)(C)C)cc3)nn12 [Example 29, 5-n-butyl-2-(4-t-butylphenyl)-1,2,4-triazolo[1,5-c]quinazoline] | 106 to 108
5 | CCCCc1nc2ccccc2c2nc(-c3ccccc3OC)nn12 [Example 33, 5-n-butyl-2-(2-methoxyphenyl)-1,2,4-triazolo[1,5-c]quinazoline] | 106.5 to 107.5
6 | CCCCc1nc2ccccc2c2nc(-c3cc(OC)c(OC)c(OC)c3)nn12 [Example 37, 5-n-butyl-2-(3,4,5-trimethoxyphenyl)-1,2,4-triazolo[1,5-c]quinazoline] | 130 to 133
7 | CCCCc1nc2ccccc2c2nc(-c3ccc(N(C)C)cc3)nn12 [Example 38, 5-n-butyl-2-[4-(N,N-dimethylamino)phenyl]-1,2,4-triazolo[1,5-c]quinazoline] | 148.5 to 150
8 | CCCCc1nc2ccccc2c2nc(-c3ccc([N+](=O)[O-])cc3)nn12 [Example 39, 5-n-butyl-2-(4-nitrophenyl)-1,2,4-triazolo[1,5-c]quinazoline] | 194 to 195
9 | CCCCc1nc2ccccc2c2nc(-c3cccnc3)nn12 [Example 40, 5-n-butyl-2-(3-pyridyl)-1,2,4-triazolo[1,5-c]quinazoline] | 140 to 141.5
10 | CCCCc1nc2ccccc2c2nc(-c3cccs3)nn12 [Example 42, 5-n-butyl-2-(2-thienyl)-1,2,4-triazolo[1,5-c]quinazoline] | 147 to 149.5
11 | CCCCc1nc2cccc(F)c2c2nc(-c3ccccc3)nn12 [Example 43, 5-n-butyl-10-fluoro-2-phenyl-1,2,4-triazolo[1,5-c]quinazoline] | 123 to 124
12 | CCCCc1nc2ccc(Br)cc2c2nc(-c3ccccc3)nn12 [Example 47, 9-bromo-5-n-butyl-2-phenyl-1,2,4-triazolo[1,5-c]quinazoline] | 129.5 to 132.5
13 | CCCCc1nc2cc(OC)c(OC)cc2c2nc(-c3ccccc3)nn12 [Example 48, 5-n-butyl-8,9-dimethoxy-2-phenyl-1,2,4-triazolo[1,5-c]quinazoline] | 150 to 152
14 | CCCCc1nc2cccc(C)c2c2nc(-c3ccccc3)nn12 [Example 49, 5-n-butyl-10-methyl-2-phenyl-1,2,4-triazolo[1,5-c]quinazoline] | 123 to 124
15 | CCCCc1nc2ccccc2c2nc(-c3cccc(OC)c3)nn12 [Example 57, 5-n-butyl-2-(3-methoxyphenyl)-1,2,4-triazolo[1,5-c]quinazoline] | 118 to 119
16 | CCCCc1nc2ccccc2c2nc(-c3ccc(SC)cc3)nn12 [Example 58, 5-n-butyl-2-(4-methylthiophenyl)-1,2,4-triazolo[1,5-c]quinazoline] | 140.5 to 141.5
17 | CCc1nc2ccccc2c2nc(-c3ccc(Br)cc3)nn12 [Example 66, 2-(4-bromophenyl)-5-ethyl-1,2,4-triazolo[1,5-c]quinazoline] | 197 to 198
18 | CCc1nc2ccccc2c2nc(-c3ccc(F)cc3)nn12 [Example 67, 5-ethyl-2-(4-fluorophenyl)-1,2,4-triazolo[1,5-c]quinazoline] | 195 to 196
19 | CCc1nc2ccccc2c2nc(-c3ccc(Cl)cc3)nn12 [Example 68, 2-(4-chlorophenyl)-5-ethyl-1,2,4-triazolo[1,5-c]quinazoline] | 197 to 198
20 | CCc1nc2ccccc2c2nc(-c3ccc(C)cc3)nn12 [Example 69, 5-ethyl-2-(4-methylphenyl)-1,2,4-triazolo[1,5-c]quinazoline] | 147 to 148
21 | CCc1nc2ccccc2c2nc(-c3ccc(OC)cc3)nn12 [Example 71, 5-ethyl-2-(4-methoxyphenyl)-1,2,4-triazolo[1,5-c]quinazoline] | 167.5 to 168
22 | CCOc1ccc(-c2nc3c4ccccc4nc(CC)n3n2)cc1 [Example 72, 2-(4-ethoxyphenyl)-5-ethyl-1,2,4-triazolo[1,5-c]quinazoline] | 153 to 154
23 | CCCc1nc2ccc(Cl)cc2c2nc(-c3ccccc3)nn12 [Example 73, 9-chloro-2-phenyl-5-n-propyl-1,2,4-triazolo[1,5-c]quinazoline] | 140.5 to 141.5
24 | CCCCc1nc2ccc(Cl)cc2c2nc(-c3ccc(F)cc3)nn12 [Example 74, 5-n-butyl-9-chloro-2-(4-fluorophenyl)-1,2,4-triazolo[1,5-c]quinazoline] | 147.5 to 150
25 | CCCCc1nc2ccc(Cl)cc2c2nc(-c3ccc(C)cc3)nn12 [Example 77, 5-n-butyl-9-chloro-2-(4-methylphenyl)-1,2,4-triazolo[1,5-c]quinazoline] | 141 to 143
26 | CCCc1nc2cc(Cl)ccc2c2nc(-c3ccccc3)nn12 [Example 79, 8-chloro-2-phenyl-5-n-propyl-1,2,4-triazolo[1,5-c]quinazoline] | 147 to 149
27 | CCCCc1nc2cc(Cl)ccc2c2nc(-c3ccc(F)cc3)nn12 [Example 80, 5-n-butyl-8-chloro-2-(4-fluorophenyl)-1,2,4-triazolo[1,5-c]quinazoline] | 185.5 to 186.5
28 | CCCCc1nc2cc(Cl)ccc2c2nc(-c3ccc(C)cc3)nn12 [Example 83, 5-n-butyl-8-chloro-2-(4-methylphenyl)-1,2,4-triazolo[1,5-c]quinazoline] | 134 to 134.5
29 | CCCCc1nc2ccc([N+](=O)[O-])cc2c2nc(-c3ccccc3)nn12 [Example 85, 5-n-butyl-9-nitro-2-phenyl-1,2,4-triazolo[1,5-c]quinazoline] | 205.5 to 206
30 | CCc1nc2ccc(Cl)cc2c2nc(-c3ccc(Cl)cc3)nn12 [Example 86, 9-chloro-2-(4-chlorophenyl)-5-ethyl-1,2,4-triazolo[1,5-c]quinazoline] | 213 to 214

Further lines, results first:

Row | melting point [°C] | Structure (SMILES)
31 | > 280 | CCCCc1nc2nncc-2c2nc(-c3ccc(O)cc3)[nH]n12 [Example 12, 5-n-butyl-2-(4-hydroxyphenyl)pyrazolo[4,3-e]-1,2,4-triazolo[1,5-c]pyrimidine]
32 | 191 to 192 | CCCCc1nc2nncc-2c2nc(-c3ccc(OCCC)cc3)[nH]n12 [Example 14, 5-n-butyl-2-(4-propoxyphenyl)pyrazolo[4,3-e]-1,2,4-triazolo[1,5-c]pyrimidine]
33 | 259 to 262 | CCCCc1nc2nncc-2c2nc(-c3cc(OC)c(OC)c(OC)c3)[nH]n12 [Example 15, 5-n-butyl-2-(3,4,5-trimethoxyphenyl)pyrazolo[4,3-e]-1,2,4-triazolo[1,5-c]pyrimidine]
34 | 279 to 280.5 | CCCCc1nc2nncc-2c2nc(-c3ccc([N+](=O)[O-])cc3)[nH]n12 [Example 17, 5-n-butyl-2-(4-nitrophenyl)pyrazolo[4,3-e]-1,2,4-triazolo[1,5-c]pyrimidine]
35 | 217 to 219 | CCCCc1nc2nncc-2c2nc(-c3cccnc3)[nH]n12 [Example 18, 5-n-butyl-2-(3-pyridyl)pyrazolo[4,3-e]-1,2,4-triazolo[1,5-c]pyrimidine]
36 | 253 to 254.5 | CCCCc1nc2nncc-2c2nc(-c3ccco3)[nH]n12 [Example 19, 5-n-butyl-2-(2-furyl)pyrazolo[4,3-e]-1,2,4-triazolo[1,5-c]pyrimidine]
37 | 214 to 216 | CCCCc1nc2nncc-2c2nc(-c3cccs3)[nH]n12 [Example 20, 5-n-butyl-2-(2-thienyl)pyrazolo[4,3-e]-1,2,4-triazolo[1,5-c]pyrimidine]
38 | 128 to 129 | CCCCc1nc2ccccc2c2nc(-c3ccc(OCCC)cc3)nn12 [Example 36, 5-n-butyl-2-(4-propoxyphenyl)-1,2,4-triazolo[1,5-c]quinazoline]
39 | 157 to 160 | CCCCc1nc2nncc-2c2nc(-c3ccccc3OC)[nH]n12 [Example 53, 5-n-butyl-2-(2-methoxyphenyl)pyrazolo[4,3-e]-1,2,4-triazolo[1,5-c]pyrimidine]
40 | 204 to 205 | CCCCc1nc2nncc-2c2nc(-c3ccc(SC)cc3)[nH]n12 [Example 56, 5-n-butyl-2-(4-methylthiophenyl)pyrazolo[4,3-e]-1,2,4-triazolo[1,5-c]pyrimidine]
41 | 272.5 to 275 | c1ccc(-c2nc3c4cnnc-4nc(-c4ccccc4)n3[nH]2)cc1 [Example 59, 2,5-diphenylpyrazolo[4,3-e]-1,2,4-triazolo[1,5-c]pyrimidine]
42 | 274 to 275 | CCCc1nc2nncc-2c2nc(-c3ccc(C)cc3)[nH]n12 [Example 60, 2-(4-methylphenyl)-5-n-propylpyrazolo[4,3-e]-1,2,4-triazolo[1,5-c]pyrimidine]
43 | 274 to 277 | CCc1nc2nncc-2c2nc(-c3ccc(OC)cc3)[nH]n12 [Example 63, 5-ethyl-2-(4-methoxyphenyl)pyrazolo[4,3-e]-1,2,4-triazolo[1,5-c]pyrimidine]
44 | > 280 | CCc1nc2nncc-2c2nc(-c3ccc(Cl)cc3)[nH]n12 [Example 64, 2-(4-chlorophenyl)-5-ethylpyrazolo[4,3-e]-1,2,4-triazolo[1,5-c]pyrimidine]
45 | > 280 | CCc1nc2nncc-2c2nc(-c3ccc(C)cc3)[nH]n12 [Example 65, 5-ethyl-2-(4-methylphenyl)pyrazolo[4,3-e]-1,2,4-triazolo[1,5-c]pyrimidine]
46 | 207 to 208 | CCCCCCc1nc2nncc-2c2nc(-c3ccccc3)[nH]n12 [Example 88, 5-n-hexyl-2-phenylpyrazolo[4,3-e]-1,2,4-triazolo[1,5-c]pyrimidine]
